In patent US5972899A, “Apoptosis induced by Shigella IpaB” (New York University, priority 1996, dated 1999):

Test system: J774 cells infected with S. flexneri M90T
Experiment: LDH release cytotoxicity assay, J774 cells infected with S. flexneri M90T
Type: cell-based, murine
Procedure: In the studies the results of which are shown in FIG. 5, 2×10^4 J774 or peritoneal macrophage cells were seeded onto 96-well plates 18 hours before infection with M90T at a multiplicity of infection of 25 bacteria per cell (Clerc, P. L. et al., supra). Two hours after infection, supernatants of the infected macrophages were assayed for LDH using the Cytotox96® kit (Promega) according to the manufacture's instructions. The percent cytotoxicity was calculated as: [formula] where spontaneous release is the amount of LDH activity in supernatants of cells not infected and total release is the LDH activity in macrophage lysates. ICE inhibitor was added 1 h before infection at a concentration of 25 μg/ml.

CC(=O)N[C@@H](Cc1ccc(O)cc1)C(=O)N[C@H](C(=O)N[C@@H](C)C(=O)N[C@H](C=O)CC(=O)O)C(C)C [Ac-YVAD-CHO] was tested, and the inhibition at 25 µg/mL (Mus musculus, ICE inhibitor 25 μg/ml added 1 h before infection, M90T at 25 bacteria per cell, LDH release 2 h after infection, read-out: inhibition of S. flexneri-induced cell death) was 81.5% and the “reversibility of the inhibition of cell death” value (inhibitor washed away (FIG. 5)) was “reversed by washing away the inhibitor”.
